Test system: Plasmodium berghei
Experiment: Luciferase/luciferin-expressing antifolate-resistant parasites were used to infect a culture of HepG2 cells that were pre-incubated with compounds. Infected hepatocytes emit light due to the luciferase reaction. Assay results are presented as the percent inhibition of light emission compared to control. […]
Format: functional
Settings: sporozoite; for IC90: read-out: LUCIFERASE INFECTION ASSAY - IC90
[1] = read-out: LUCIFERASE INFECTION ASSAY - IC50

## O=C(Nc1nc2ccccc2[nH]1)c1cn(-c2ccccc2C(F)(F)F)nn1
FFLUC_HILL_SLOPE 2.58, FFLUC_R_SQUARED 0.587, PBLUC_HILL_SLOPE 2.16, PBLUC_R_SQUARED 0.829, read-out: LUCIFERASE INFECTION ASSAY - IC50
  IC50: 5.53 µM
  IC90: > 10 µM

## COc1cc2[nH]c(CN3CCN(c4ncccn4)CC3)nc(=O)c2cc1OC
PBLUC_HILL_SLOPE 2.49, PBLUC_R_SQUARED 0.0972, read-out: LUCIFERASE INFECTION ASSAY - IC50
  IC50: 7.74 µM
  IC90: > 10 µM

## CCC(C)(C)NC(=O)CSc1nnc(/C=C/c2ccccc2C)[nH]1
[1]
  IC50: > 10 µM
  IC90: > 10 µM

## CCN1C(=O)N(Cc2cccc(OC)c2)C(=O)C12CCN(Cc1cc3ccccc3s1)CC2
HEPG2TOX_HILL_SLOPE 3.09, HEPG2TOX_R_SQUARED 0.881, PBLUC_HILL_SLOPE 9.24, PBLUC_R_SQUARED 0.267, read-out: LUCIFERASE INFECTION ASSAY - IC50
  IC50: 6.06 µM
  IC90: > 7.12 µM

## O=C(c1cccnc1)N1CCc2nc(NCc3cccc(Oc4ccccc4)c3)ncc2C1
HEPG2TOX_HILL_SLOPE 6.99, HEPG2TOX_R_SQUARED 0.608, read-out: LUCIFERASE INFECTION ASSAY - IC50
  IC50: > 7.54 µM
  IC90: > 7.54 µM

## CNc1nc2cnc(-c3cncc(OC)c3)cc2n1Cc1ccc(OC)c(OC)c1
PBLUC_HILL_SLOPE 6.98, PBLUC_R_SQUARED 0.0782, read-out: LUCIFERASE INFECTION ASSAY - IC50
  IC50: 8.17 µM
  IC90: > 10 µM

## Clc1ccc(-c2cnc3cnc(-c4ccsc4)cn23)cc1
[1]
  IC50: 2.46 µM
  IC90: 8.06 µM

## CCc1cc2c(=O)n(NC(=S)Nc3ccc(OC)cc3)cnc2s1
[1]
  IC50: > 10 µM
  IC90: > 10 µM

## CC(=O)NCCc1ccc(C(=O)CSc2nccn2-c2ccc(Cl)cc2)s1
[1]
  IC50: > 10 µM
  IC90: > 10 µM

## O=C(CSCCCN1CCN(c2cccc(Cl)c2)CC1)NNC(=O)Nc1cc(Cl)cc(Cl)c1
[1]
  IC50: > 6.22 µM
  IC90: > 6.22 µM

## N#Cc1ccc(-c2cnc3cnc(-c4cnn(Cc5ccccc5)c4)cn23)cc1
FFLUC_HILL_SLOPE 0.364, FFLUC_R_SQUARED 0.0429, PBLUC_HILL_SLOPE 3.85, PBLUC_R_SQUARED 0.0396, read-out: LUCIFERASE INFECTION ASSAY - IC50
  IC50: 7.64 µM
  IC90: > 8.77 µM

## Cc1ccc(N2CC(C(=O)Nc3cc(C4CC4)n[nH]3)CC2=O)cc1 (centres undefined)
HEPG2TOX_HILL_SLOPE 2.65, HEPG2TOX_R_SQUARED 0.943, PBLUC_HILL_SLOPE 2.62, PBLUC_R_SQUARED 0.892, read-out: LUCIFERASE INFECTION ASSAY - IC50
  IC50: 0.963 µM
  IC90: 2.23 µM

## O=C(OCc1cccc(Cl)c1)c1cncn1-c1ccccc1
[1]
  IC50: > 10 µM
  IC90: > 10 µM

## Cc1c(C)c(C)c(C(=O)C2CCN(C(=O)c3ccc([N+](=O)[O-])o3)CC2)c(C)c1C
FFLUC_HILL_SLOPE 1.26, FFLUC_R_SQUARED 0.398, read-out: LUCIFERASE INFECTION ASSAY - IC50
  IC50: > 8.28 µM
  IC90: > 8.28 µM

## Cc1ccc(NC(=O)c2ccc(Cl)c(NC(=O)c3cccs3)c2)cc1
[1]
  IC50: > 8.9 µM
  IC90: > 8.9 µM

## COc1cc(/C=C2/C(=O)Nc3cc(Cl)ccc32)c([N+](=O)[O-])cc1OC(F)F
HEPG2TOX_HILL_SLOPE 4.03, HEPG2TOX_R_SQUARED 0.974, PBLUC_HILL_SLOPE 1.79, PBLUC_R_SQUARED 0.765, read-out: LUCIFERASE INFECTION ASSAY - IC50
  IC50: 1.34 µM
  IC90: 4.58 µM

## O=C(c1c[nH]c(-c2ccnc(N3CCCC3)c2)c1)c1cc(Cl)ccc1O
HEPG2TOX_HILL_SLOPE 4.74, 0.999, HEPG2TOX_R_SQUARED 0.925, 0.982, PBLUC_HILL_SLOPE 1.70, 2.23, PBLUC_R_SQUARED 0.381, 0.812, read-out: LUCIFERASE INFECTION ASSAY - IC50
  IC50: 0.598 µM
  IC90: 1.6 µM

## O=C(NNC(=S)Nc1cccc(C(F)(F)F)c1)c1[nH]c2ccccc2c1-c1ccccc1
HEPG2TOX_HILL_SLOPE 2.69, HEPG2TOX_R_SQUARED 0.963, PBLUC_HILL_SLOPE 11.7, PBLUC_R_SQUARED 0.673, read-out: LUCIFERASE INFECTION ASSAY - IC50
  IC50: 2.27 µM
  IC90: 2.73 µM

## Cc1cc(C(=O)OCc2ccc(-n3nc(C)cc3C)cc2)c2ccccc2n1
HEPG2TOX_HILL_SLOPE 1.96, HEPG2TOX_R_SQUARED 0.0908, PBLUC_HILL_SLOPE 15.9, PBLUC_R_SQUARED 0.28, read-out: LUCIFERASE INFECTION ASSAY - IC50
  IC50: 3.66 µM
  IC90: 4.21 µM

## Cc1cc(C(=O)N/N=C/c2ccc([N+](=O)[O-])s2)nn1-c1c(Cl)cc(Cl)cc1Cl
FFLUC_HILL_SLOPE 59.9, FFLUC_R_SQUARED 0.709, PBLUC_HILL_SLOPE 2.3, PBLUC_R_SQUARED 0.454, read-out: LUCIFERASE INFECTION ASSAY - IC50
  IC50: 1.86 µM
  IC90: 4.83 µM

## Cc1ccc(N2C(=O)N(CC(=O)N3CCc4ccccc43)C(=O)C2C)cc1 (centres undefined)
[1]
  IC50: > 2 µM
  IC90: > 2 µM

## Cc1cc(=O)nc(N/N=C/c2c(C)nn(-c3cccc(C(F)(F)F)c3)c2Cl)[nH]1
HEPG2TOX_HILL_SLOPE 9.49, HEPG2TOX_R_SQUARED 0.952, PBLUC_HILL_SLOPE 2.17, PBLUC_R_SQUARED 0.422, read-out: LUCIFERASE INFECTION ASSAY - IC50
  IC50: 2.91 µM
  IC90: 8.03 µM

## COc1ccccc1NCC(=O)N/N=C/c1cc(C)c2cc(C(C)C)ccc(C)c1-2
[1]
  IC50: > 10 µM
  IC90: > 10 µM

## COC(=O)c1cc2c(N)c(C(=O)c3ccc(Cl)cc3)sc2nc1C(OC)OC
[1]
  IC50: > 7.84 µM
  IC90: > 7.84 µM

## c1ccc(-c2cc(-c3ccc(NC4=NCCCS4)cc3)nc3ccccc23)cc1
PBLUC_HILL_SLOPE 28.5, PBLUC_R_SQUARED 0.262, read-out: LUCIFERASE INFECTION ASSAY - IC50
  IC50: 8.76 µM
  IC90: 9.46 µM

## O=C(CN1CCC(NC(=O)c2cn(-c3ccccc3)nc2-c2cccs2)CC1)Nc1ccccc1
[1]
  IC50: > 10 µM
  IC90: > 10 µM

## Cc1cccc(-c2nc3ccnc(Nc4ccc(C(C)C)cc4)c3[nH]2)c1
HEPG2TOX_HILL_SLOPE 8.42, HEPG2TOX_R_SQUARED 0.9, PBLUC_HILL_SLOPE 13.4, PBLUC_R_SQUARED 0.519, read-out: LUCIFERASE INFECTION ASSAY - IC50
  IC50: 8.58 µM
  IC90: > 10 µM

## Cc1nn(C)c2nc(C3CC3)cc(C(=O)Nc3ccccc3C(=O)NC(C)c3ccccc3)c12 (centres undefined)
[1]
  IC50: 8.82 µM
  IC90: > 10 µM

## Cc1ccsc1C(=O)Nc1nc2cc3c(cc2s1)OCCO3
HEPG2TOX_HILL_SLOPE 1.74, HEPG2TOX_R_SQUARED 0.923, PBLUC_HILL_SLOPE 0.323, PBLUC_R_SQUARED 0.422, read-out: LUCIFERASE INFECTION ASSAY - IC50
  IC50: 0.658 µM
  IC90: > 10 µM

## CC1CN(CC(O)COCc2ccc(Cl)cc2)CCN1CC(O)COCc1ccc(Cl)cc1 (centres undefined)
HEPG2TOX_HILL_SLOPE 0.385, HEPG2TOX_R_SQUARED 0.947, PBLUC_HILL_SLOPE 12.7, PBLUC_R_SQUARED 0.144, read-out: LUCIFERASE INFECTION ASSAY - IC50
  IC50: 9.06 µM
  IC90: > 10 µM

## COc1cccc(/C=c2\s/c(=C\C(=O)C(C)(C)C)n(C)c2=O)c1OC(C)C
HEPG2TOX_HILL_SLOPE 1.82, HEPG2TOX_R_SQUARED 0.577, PBLUC_HILL_SLOPE 1.88, PBLUC_R_SQUARED 0.501, read-out: LUCIFERASE INFECTION ASSAY - IC50
  IC50: 8.5 µM
  IC90: > 10 µM

## Cc1ccc(C)c(OCCN2CCN(CC(=O)Nc3c(C)cccc3C)CC2)c1
[1]
  IC50: > 10 µM
  IC90: > 10 µM

## CNC(=O)CNc1nc(-c2ccccn2)nc2scc(-c3ccccc3)c12
PBLUC_HILL_SLOPE 4.47, PBLUC_R_SQUARED 0.505, read-out: LUCIFERASE INFECTION ASSAY - IC50
  IC50: 4.55 µM
  IC90: 7.43 µM

## COC(CNC(=S)c1c(-c2ccc(Cl)cc2)c2c3n(c(-c4cccc(S(=O)(=O)N5CCOCC5)c4)nn13)CCCC2)OC
FFLUC_HILL_SLOPE 2.83, FFLUC_R_SQUARED 0.688, HEPG2TOX_HILL_SLOPE 16.1, HEPG2TOX_R_SQUARED 0.632, PBLUC_HILL_SLOPE 13, PBLUC_R_SQUARED 0.649, read-out: LUCIFERASE INFECTION ASSAY - IC50
  IC50: 0.383 µM
  IC90: 0.453 µM

## COc1ccc2nc(C)cc(N3CCc4c(sc(N)c4C#N)C3)c2c1
[1]
  IC50: > 10 µM
  IC90: > 10 µM

## CCc1ccc(-c2nc(Cn3cnc4ccccc4c3=O)cs2)cc1
[1]
  IC50: > 10 µM
  IC90: > 10 µM

## Cc1[nH]c(-c2ccccn2)nc(=O)c1CC(=O)OCc1nc2ccccc2s1
PBLUC_HILL_SLOPE 1.8, PBLUC_R_SQUARED 0.582, read-out: LUCIFERASE INFECTION ASSAY - IC50
  IC50: 7.29 µM
  IC90: > 10 µM

## COc1ccc(-c2csc3ncnc(Sc4nnc(-c5cccc(C)c5)n4CC(N)=O)c23)cc1
HEPG2TOX_HILL_SLOPE 1.67, 2.83, HEPG2TOX_R_SQUARED 0.956, 0.971, PBLUC_HILL_SLOPE 8.88, 0.995, PBLUC_R_SQUARED 0.771, 0.637, read-out: LUCIFERASE INFECTION ASSAY - IC50
  IC50: 0.702 µM
  IC90: 2.23 µM

## CS(=O)(=O)Nc1ccc(S(=O)(=O)NC23CC4CC(CC(C4)C2)C3)cc1
[1]
  IC50: > 8.58 µM
  IC90: > 8.58 µM

## Cc1cc(C(=O)C(C)OC(=O)c2ccc(S(C)(=O)=O)c([N+](=O)[O-])c2)c(C)n1-c1ccc(Cl)cc1 (centres undefined)
[1]
  IC50: > 10 µM
  IC90: > 10 µM

## O=C1CCCN1CCCNc1cc(-c2ccccc2)c2ccccc2n1
HEPG2TOX_HILL_SLOPE 0.987, HEPG2TOX_R_SQUARED 0.959, PBLUC_HILL_SLOPE 13.1, PBLUC_R_SQUARED 0.545, read-out: LUCIFERASE INFECTION ASSAY - IC50
  IC50: 3.77 µM
  IC90: 4.46 µM

## CCOC(=O)c1sc(N)c(C#N)c1COC(=O)C1(c2cccc(F)c2)CCCC1
HEPG2TOX_HILL_SLOPE 2.42, HEPG2TOX_R_SQUARED 0.924, PBLUC_HILL_SLOPE 2.7, PBLUC_R_SQUARED 0.388, read-out: LUCIFERASE INFECTION ASSAY - IC50
  IC50: 3.67 µM
  IC90: 8.29 µM
